In US12240862B2, “Inhibitors of peptidylarginine deiminases” (Gilead Sciences, Inc., priority 2020, dated 2025):

Molecular target: T1, human PAD4 (Homo sapiens, UniProt Q9UM07)
T1 construct: human PAD4 (NM_012387), A2P663, was PCR amplified; His-SUMO (N, cleaved yes); made in house; host or cells: E. coli BL21(DE3)
Assay: In vitro PAD4 BAEE biochemical assay
Conditions: human PAD4, BAEE substrate; 5 nM PAD4, 2 mM calcium chloride, 3 mM BAEE; geometric mean of multiple experiments
How it was run: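 Tag-free recombinant hPAD4 (5 nM), 2 mM CaCl2, 3 mM BAEE, 50 mM MOPS pH 7.6, 2 mM DTT; 30 min compound preincubation, 2 h reaction, all 25 °C. EDTA quench; ammonia read via o-phthalaldehyde amine coupling, 1 h.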

T1 sequence (Q9UM07 2-663): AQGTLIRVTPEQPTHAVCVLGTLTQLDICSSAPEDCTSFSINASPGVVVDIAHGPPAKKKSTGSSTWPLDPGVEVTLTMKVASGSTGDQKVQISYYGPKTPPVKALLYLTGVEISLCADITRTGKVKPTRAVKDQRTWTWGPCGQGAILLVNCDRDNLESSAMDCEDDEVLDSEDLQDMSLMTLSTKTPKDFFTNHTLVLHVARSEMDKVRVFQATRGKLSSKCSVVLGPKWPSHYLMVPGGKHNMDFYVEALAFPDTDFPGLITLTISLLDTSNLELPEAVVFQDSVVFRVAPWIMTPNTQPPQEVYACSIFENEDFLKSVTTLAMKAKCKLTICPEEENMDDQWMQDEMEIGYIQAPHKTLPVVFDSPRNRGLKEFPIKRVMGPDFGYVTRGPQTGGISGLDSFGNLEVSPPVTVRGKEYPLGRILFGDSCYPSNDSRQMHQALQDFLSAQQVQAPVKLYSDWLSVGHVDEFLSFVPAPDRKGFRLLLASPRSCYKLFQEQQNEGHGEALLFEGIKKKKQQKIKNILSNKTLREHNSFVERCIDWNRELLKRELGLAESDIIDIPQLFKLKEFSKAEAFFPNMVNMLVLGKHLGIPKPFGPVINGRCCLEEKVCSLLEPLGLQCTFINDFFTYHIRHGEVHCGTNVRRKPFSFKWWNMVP

| IC50 [nM] | Compound |
| --- | --- |
| 4460 | CCc1ccc2cc(-c3nc4cc(C(=O)N5C[C@]6(N)CC[C@H]5C6)cc(OC)n4c3C)n(CC3CC3)c2n1 [Example 587, [(1~{S},4~{S})-4-amino-2-azabicyclo[2.2.1]heptan-2-yl]-[2-[1-(cyclopropylmethyl)-6-ethylpyrrolo[2,3-b]pyridin-2-yl]-5-methoxy-3-methylimidazo[1,2-a]pyridin-7-yl]methanone] |
| 69.8 | COc1cc(C(=O)N2[C@H]3CC[C@@H]2[C@H](N)C3)cc2nc(-c3cc4ccc([C@@H](C)NC(=O)CC5(OC)CC5)nc4n3CC3CC3)c(C)n12 [Example 33, ~{N}-[(1~{R})-1-[2-[7-[(1~{R},2~{R}, 4~{S})-2-amino-7-azabicyclo[2.2.1]heptane-7-carbonyl]-5-methoxy-3-methylimidazo [1,2-a]pyridin-2-yl]-1-(cyclopropylmethyl)pyrrolo[2,3-b]pyridin-6-yl]ethyl]-2-(1-methoxycyclopropyl) acetamide] |
| 23000 | CCc1ccc2cc(-c3nc4cc(C(=O)N5CCCC(NCCO)C5)cc(OC)n4c3C)n(CC3CC3)c2n1 (stereo not shown) [Example 581, [2-[1-(cyclopropylmethyl)-6-ethylpyrrolo[2,3-b]pyridin-2-yl]-5-methoxy-3-methylimidazo[1,2-a]pyridin-7-yl]-[3-(2-hydroxyethylamino)piperidin-1-yl]methanone] |
| 234 | COc1cc(C(=O)N2CCC[C@@H](N)C2)cc2nc(-c3cc4ccc([C@@H](C)N5CCCC5=O)nc4n3CC3CC3)c(C)n12 [Example 279, 1-[(1~{R})-1-[2-[7-[(3~{R})-3-aminopiperidine-1-carbonyl]-5-methoxy-3-methylimidazo [1,2-a]pyridin-2-yl]-1-(cyclopropylmethyl)pyrrolo [2,3-b]pyridin-6-yl]ethyl] pyrrolidin-2-one] |
| 114 | COc1cc(C(=O)N2[C@H]3CC[C@@H]2[C@H](N)C3)cc2nc(-c3cc4ccc(C5CCN(C)C(=O)C5)nc4n3CC3CC3)c(C)n12 (stereo partly shown) [Example 560, 4-[2-[7-[(1~{R},2~{R}, 4~{S})-2-amino-7-azabicyclo[2.2.1]heptane-7-carbonyl]-5-methoxy-3-methylimidazo[1,2-a]pyridin-2-yl]-1-(cyclopropylmethyl)pyrrolo [2,3-b]pyridin-6-yl]-1-methylpiperidin-2-one] |
| 44.2 | COc1cc(C(=O)N2[C@H]3CC[C@@H]2[C@H](N)C3)cc2nc(-c3cc4ccc([C@@H](C)NC(=O)C5(O)CCCC5)nc4n3CC3CC3)c(C)n12 [Example 88, ~{N}-[(1~{R})-1-[2-[7-[(1~{R},2~{R},4~{S})-2-amino-7-azabicyclo[2.2.1]heptane-7-carbonyl]-5-methoxy-3-methylimidazo [1,2-a]pyridin-2-yl]-1-(cyclopropylmethyl)pyrrolo [2,3-b]pyridin-6-yl]ethyl]-1-hydroxycyclopentane-1-carboxamide] |
| 2680 | CCc1cc2c(cc1F)cc(-c1nc3cc(C(=O)N4CCC[C@@H](N)C4)cc(OC)n3c1C)n2CC1CC1 [Example 589, [(3~{R})-3-aminopiperidin-1-yl]-[2-[1-(cyclopropylmethyl)-6-ethyl-5-fluoroindol-2-yl]-5-methoxy-3-methylimidazo[1,2-a]pyridin-7-yl]methanone] |
| 45.9 | COc1cc(C(=O)N2[C@H]3CC[C@@H]2[C@H](N)C3)cc2nc(-c3cc4ccc([C@@H](C)NC(=O)N[C@@H](C)c5cccnc5)nc4n3CC3CC3)c(C3CC3)n12 [Example 217, 1-[(1~{R})-1-[2-[7-[(1~{R},2~{R},4~{S})-2-amino-7-azabicyclo[2.2.1]heptane-7-carbonyl]-3-cyclopropyl-5-methoxyimidazo [1,2-a]pyridin-2-yl]-1-(cyclopropylmethyl)pyrrolo [2,3-b]pyridin-6-yl]ethyl]-3-[(1~{S})-1-pyridin-3-ylethyl]urea] |

More lines, now with the values behind:

| Compound | IC50 [nM] |
| --- | --- |
| COc1cc(C(=O)N2[C@H]3CC[C@@H]2[C@H](N)C3)cc2nc(-c3cc4ccc([C@@H](C)NC(=O)N5CC(OC(F)(F)F)C5)nc4n3CC3CC3)c(C)n12 [Example 202, ~{N}-[(1~{R})-1-[2-[7-[(1~{R},2~{R},4~{S})-2-amino-7-azabicyclo[2.2.1]heptane-7-carbonyl]-5-methoxy-3-methylimidazo [1,2-a]pyridin-2-yl]-1-(cyclopropylmethyl)pyrrolo [2,3-b]pyridin-6-yl]ethyl]-3-(trifluoromethoxy)azetidine-1-carboxamide] | 52 |
| COc1cc(C(=O)N2[C@H]3CC[C@@H]2[C@H](N)C3)cc2nc(-c3cc4ccc(N5[C@@H](C)CCCS5(=O)=O)nc4n3CC3CC3)c(C)n12 [Example 462, ((1R,2R,4S)-2-amino-7-azabicyclo[2.2.1]heptan-7-yl)(2-(1-(cyclopropylmethyl)-6-((S)-3-methyl-1,1-dioxido-1,2-thiazinan-2-yl)-1H-pyrrolo[2,3-b]pyridin-2-yl)-5-methoxy-3-methylimidazo[1,2-a]pyridin-7-yl)methanone] | 39.7 |
| COc1cc(C(=O)N2[C@H]3CC[C@@H]2[C@H](N)C3)cc2nc(-c3cc4ccc(N(C(F)F)S(C)(=O)=O)nc4n3CC3CC3)c(C3CC3)n12 [Example 385, ~{N}-[2-[7-[(1~{R},2~{R}, 4~{S})-2-amino-7-azabicyclo[2.2.1]heptane-7-carbonyl]-3-cyclopropyl-5-methoxyimidazo[1,2-a]pyridin-2-yl]-1-(cyclopropylmethyl)pyrrolo [2,3-b]pyridin-6-yl]-~{N}-(difluoromethyl) methanesulfonamide] | 156 |
| COc1cc(C(=O)N2[C@H]3CC[C@@H]2[C@H](N)C3)cc2nc(-c3cc4ccc([C@@H](C)NC(=O)C5(C(F)(F)F)CCOCC5)nc4n3CC3CC3)c(C)n12 [Example 67, ~{N}-[(1~{R})-1-[2-[7-[(1~{R},2~{R},4~{S})-2-amino-7-azabicyclo [2.2.1]heptane-7-carbonyl]-5-methoxy-3-methylimidazo [1,2-a]pyridin-2-yl]-1-(cyclopropylmethyl)pyrrolo[2,3-b]pyridin-6-yl]ethyl]-4-(trifluoromethyl)oxane-4-carboxamide] | 124 |
| COc1cc(C(=O)N2[C@H]3CC[C@@H]2[C@H](N)C3)cc2nc(-c3cc4ccc([C@@H](C)NC(=O)CCS(C)(=O)=O)nc4n3CC3CC3)c(C)n12 [Example 153, ~{N}-[(1~{R})-1-[2-[7-[(1~{R},2~{R},4~{S})-2-amino-7-azabicyclo[2.2.1]heptane-7-carbonyl]-5-methoxy-3-methylimidazo [1,2-a]pyridin-2-yl]-1-(cyclopropylmethyl)pyrrolo [2,3-b]pyridin-6-yl]ethyl]-3-methylsulfonylpropanamide] | 68.7 |
| COc1cc(C(=O)N2[C@@H]3C[C@@H](N)[C@H]2CC3C)cc2nc(-c3cc4ccc(N(C(F)F)S(C)(=O)=O)nc4n3CC3CC3)c(C)n12 (stereo partly drawn) [Example 352, N-[2-[7-[(1R,2R,4R)-2-amino-5-methyl-7-azabicyclo[2.2.1]heptane-7-carbonyl]-5-methoxy-3-methyl-imidazo[1,2-a]pyridin-2-yl]-1-(cyclopropylmethyl)pyrrolo [2,3-b]pyridin-6-yl]-N-(difluoromethyl) methanesulfonamide] | 711 |
| C=CCC(=O)N[C@H](C)c1ccc2cc(-c3nc4cc(C(=O)N5[C@H]6CC[C@@H]5[C@H](N)C6)cc(OC)n4c3C)n(CC3CC3)c2n1 [Example 64, ~{N}-[(1~{R})-1-[2-[7-[(1~{R},2~{R},4~{S})-2-amino-7-azabicyclo[2.2.1]heptane-7-carbonyl]-5-methoxy-3-methylimidazo [1,2-a]pyridin-2-yl]-1-(cyclopropylmethyl)pyrrolo[2,3-b]pyridin-6-yl]ethyl]but-3-enamide] | 38.5 |
| COc1cc(C(=O)N2[C@H]3CC[C@@H]2[C@H](N)C3)cc2nc(-c3cc4ccc([C@@H](C)NC(=O)C5CC(O)(C(F)(F)F)C5)nc4n3CC3CC3)c(C)n12 (stereo partly shown) [Example 45, ~{N}-[(1~{R})-1-[2-[7-[(1~{R},2~{R},4~{S})-2-amino-7-azabicyclo[2.2.1]heptane-7-carbonyl]-5-methoxy-3-methylimidazo [1,2-a]pyridin-2-yl]-1-(cyclopropylmethyl)pyrrolo[2,3-b]pyridin-6-yl]ethyl]-3-hydroxy-3-(trifluoromethyl) cyclobutane-1-carboxamide] | 25.1 |
| CCc1ccc2cc(-c3nc4cc(C(=O)N5[C@H]6CC[C@@H]5[C@H](N)C6)cc(OC)n4c3C)n(-c3nccs3)c2n1 [Example 510, [(1~{R},2~{R},4~{S})-2-amino-7-azabicyclo [2.2.1]heptan-7-yl]-[2-[6-ethyl-1-(1,3-thiazol-2-yl)pyrrolo[2,3-b]pyridin-2-yl]-5-methoxy-3-methylimidazo[1,2-a]pyridin-7-yl]methanone] | 17100 |
| COc1cc(C(=O)N2[C@@H]3CC[C@@H](N)[C@H]2CC3)cc2nc(-c3cc4ccc(N(C(F)F)S(C)(=O)=O)nc4n3CC3CC3)c(C)n12 [Example 407, ~{N}-[2-[7-[(1~{R},2~{R}, 5~{R})-2-amino-8-azabicyclo[3.2.1]octane-8-carbonyl]-5-methoxy-3-methylimidazo[1,2-a]pyridin-2-yl]-1-(cyclopropylmethyl)pyrrolo [2,3-b]pyridin-6-yl]-~{N}-(difluoromethyl) methanesulfonamide] | 129 |
| COc1cc(C(=O)N2C[C@H](N)CC[C@@H]2C)cc2nc(-c3cc4ccc(C5CC5)nc4n3CC3CC3)c(C)n12 [Example 612, [(2~{S},5~{R})-5-amino-2-methylpiperidin-1-yl]-[2-[6-cyclopropyl-1-(cyclopropylmethyl)pyrrolo [2,3-b]pyridin-2-yl]-5-methoxy-3-methylimidazo[1,2-a]pyridin-7-yl]methanone] | 743 |
